Among the data in PubChem BioAssay AID724 (NMMLSC, 2007) are Ki and IC50 values, retold here.

As a reminder, the Ki is a dissociation constant, usually derived from enzyme kinetics or from competition with a known ligand. By IC50 is commonly meant the concentration that inhibits the measured activity by half. A high value points to a need for much substance.

For the experiment, the target named is fMet-Leu-Phe receptor (Homo sapiens) (UniProt P21462). Description: human FPR1 ligand displacement potency – cell-based, flow cytometry, Ki from IC50, dose response (AID 724). The settings on record: FPR1-expressing cells, fluorescent ligand binding competition; for IC50: measured here: IC50 of ligand binding inhibition. Background: In flow cytometry, cells or beads pass a laser one at a time.

Activity calls are given as the source filed them. The rule behind the calls is not given here. A value given as a limit tells only on which side of the number the result lay.

Sequence of fMet-Leu-Phe receptor (Homo sapiens) (P21462 whole entry, looked up): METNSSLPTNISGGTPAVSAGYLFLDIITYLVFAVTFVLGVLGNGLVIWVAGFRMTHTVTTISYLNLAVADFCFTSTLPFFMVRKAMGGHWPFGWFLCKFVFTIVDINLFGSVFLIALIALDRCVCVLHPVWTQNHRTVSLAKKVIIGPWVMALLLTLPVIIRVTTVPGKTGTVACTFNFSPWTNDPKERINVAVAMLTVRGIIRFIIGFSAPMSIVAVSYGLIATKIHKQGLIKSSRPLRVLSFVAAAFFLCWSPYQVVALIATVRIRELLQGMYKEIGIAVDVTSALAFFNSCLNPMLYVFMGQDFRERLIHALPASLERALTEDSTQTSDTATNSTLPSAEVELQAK

`COc1ccc(C2C(C(=O)c3cccs3)=C(O)C(=O)N2CCN2CCOCC2)c(OC)c1` (stereo not given): the Ki was 2.9 µM and the IC50 is 4.4 µM.
In the case of `COc1cc(C2C(C(=O)c3cc4ccccc4o3)=C(O)C(=O)N2CCN(C)C)ccc1O` (stereo not given), the Ki was > 44.3 µM (inactive).
The same measure, in the same setting: the same measure for `COc1ccc(OC)c(C2/C(=C(\O)c3ccc(C)cc3)C(=O)C(=O)N2CCC(=O)O)c1` (stereo not given): > 44.3 µM (inactive).
For `CC(=O)C1=C(O)C(=O)N(CCc2c(C)[nH]c3ccccc23)C1c1cccc(F)c1` (stereo not given), the Ki result is “inactive” and the IC50 was determined as 17.2 µM.
In turn, `COc1ccc(-c2c(C(F)(F)F)oc3cc(OC(=O)c4ccco4)ccc3c2=O)cc1OC` displayed an IC50 of 5 µM.
Regarding `O=C(C1=C(O)C(=O)N(CCCN2CCOCC2)C1c1cccnc1)c1cc2ccccc2o1` (stereo not given), the Ki is > 44.3 µM (inactive).
The same measure, in the same setting: the same measure for `COc1ccc(/C(O)=C2/C(=O)C(=O)N(CCc3c[nH]c4ccccc34)C2c2ccc(C(C)C)cc2)cc1` (stereo not given): > 44.3 µM (inactive).
Turning to `COc1ccc(-c2c(C(F)(F)F)oc3cc(OC(=O)c4cccnc4)ccc3c2=O)cc1OC`, the IC50 came to 13.6 µM.
Take `N#Cc1c(N/C(=C\C(=O)c2ccccc2)C(=O)O)sc2c1CCC2`: the Ki was > 44.3 µM (inactive).
The same measure, in the same setting: the same measure for `O=C(C1=C(O)C(=O)N(CCCn2ccnc2)C1c1cccnc1)c1cc2ccccc2o1` (stereo not given): > 44.3 µM (inactive).
The same measure, in the same setting: the figure for `COc1ccc(C2C(C(=O)c3ccco3)=C(O)C(=O)N2CCCN2CCOCC2)cc1OC` (stereo not given) is > 44.3 µM (inactive).
The compound `COc1ccccc1-c1c(C(F)(F)F)oc2cc(OC(=O)c3ccco3)ccc2c1=O` yielded an IC50 of 1.7 µM.
On to `COc1ccc(OC)c(C2/C(=C(\O)c3ccccc3)C(=O)C(=O)N2c2ccc(C)c(Cl)c2)c1` (stereo not given), for which the Ki entry is “inactive” and the IC50 stood at 25.7 µM.
Regarding `COCCCN1C(=O)C(=O)/C(=C(/O)c2ccccc2)C1c1ccc(C(C)C)cc1` (stereo not given), the Ki result is “inactive” and the IC50 came to 31.1 µM.
The matching figures for `COCCCN1C(=O)C(=O)/C(=C(/O)c2ccccc2)C1c1ccc(O)c(OC)c1` (stereo not given): “inactive” and 50.5 µM.
`COc1cc(C2C(C(C)=O)=C(O)C(=O)N2c2ccc(Br)cc2)ccc1O` (stereo not given): the Ki is > 44.3 µM (inactive).
On to `COc1ccc(C2C(C(=O)c3cccs3)=C(O)C(=O)N2CCCn2ccnc2)cc1` (stereo not given), for which the Ki is 4.7 µM and the IC50 was determined as 7.1 µM.
As to `Cc1ccc(/C(O)=C2\C(=O)C(=O)N(Cc3cccnc3)C2c2ccc(Br)cc2)cc1` (stereo not given), the Ki is > 44.3 µM (inactive).
In the case of `COc1ccc(C2/C(=C(\O)c3ccccc3)C(=O)C(=O)N2CCCn2ccnc2)c(OC)c1` (stereo not given), the Ki was 3.4 µM and the IC50 is 5.2 µM.
Take `Cc1ccc(N2C(=O)C(=O)/C(=C(\O)c3ccccc3)C2c2cccc(F)c2)cc1Br` (stereo not given): the Ki is > 44.3 µM (inactive).
Consider `O=C(O)CCCN1C(=O)C(=O)/C(=C(/O)c2ccccc2)C1/C=C/c1ccccc1` (stereo not given), for which the Ki is > 44.3 µM (inactive).
As for `O=C(C1=C(O)C(=O)N(CCc2ccccc2)C1c1ccc(Cl)cc1)c1cccs1` (stereo not given), the Ki was 6.9 µM and the IC50 is 10.6 µM.
In the case of `COc1ccc(C2/C(=C(\O)c3ccc(C)cc3)C(=O)C(=O)N2Cc2cccnc2)c(OC)c1` (stereo not given), the Ki entry was “inactive” and the IC50 is 59.7 µM.
For `COc1ccc(OC)c(C2/C(=C(\O)c3ccccc3)C(=O)C(=O)N2c2cccnc2)c1` (stereo not given), in that order: 6 µM and 9.2 µM.
The matching figures for `CC(C)c1ccc(C2/C(=C(\O)c3ccccc3)C(=O)C(=O)N2Cc2cccnc2)cc1` (stereo not given): “inactive” and 50.7 µM.
Consider `O=C(Oc1ccc2c(=O)c(-c3ccccc3Cl)c(C(F)(F)F)oc2c1)c1cccs1`, for which the IC50 was determined as 1.7 µM.
The same measure, in the same setting: the same measure for `Cc1nc2c(-c3ccc(Cl)cc3)c(C(F)(F)F)[nH]n2c(=O)c1Cc1ccccc1`: 3.8 µM.
As for `COc1ccc(/C(O)=C2/C(=O)C(=O)NC2c2ccc(OC)cc2OC)cc1` (stereo not given), the Ki is > 44.3 µM (inactive).
Still for that read-out and setting: the same measure for `O=C(C1=C(O)C(=O)N(CCCn2ccnc2)C1c1cccnc1)c1ccco1` (stereo not given): > 44.3 µM (inactive); for `Cc1ccc(/C(O)=C2\C(=O)C(=O)N(c3nnc(C)s3)C2c2ccc(C(C)C)cc2)cc1` (stereo not given): > 44.3 µM (inactive).
For the compound `COCCN1C(=O)C(=O)/C(=C(/O)c2ccccc2)C1c1cc(OC)ccc1OC` (stereo not given), the Ki is 1.8 µM and the IC50 amounted to 2.8 µM.
For `O=C1C(=O)N(CN2CCOCC2)C(c2ccc(Br)cc2)/C1=C(\O)c1ccccc1` (stereo not given), the Ki is > 44.3 µM (inactive).
As to `COc1ccc(C2C(C(=O)c3cc4ccccc4o3)=C(O)C(=O)N2CCN(C)C)cc1OC` (stereo not given), the Ki was > 44.3 µM (inactive).
Turning to `COc1ccc(C2C(C(=O)c3ccco3)=C(O)C(=O)N2CCN2CCOCC2)c(OC)c1` (stereo not given), the Ki is 6.4 µM and the IC50 was determined as 9.8 µM.
Turning to `CCCCCCOc1cccc(N2C(=O)C(=O)/C(=C(\O)c3ccccc3)C2c2cccc(F)c2)c1` (stereo not given), the Ki was > 44.3 µM (inactive).
As to `CCc1cc2c(=O)c(-c3nc4ccccc4n3C)c(C)oc2cc1OC(C)=O`, the IC50 worked out at 0.5 µM.
Turning to `O=C1C(=O)N(c2ccc(F)cc2)C(c2ccc(Br)cc2)/C1=C(/O)c1ccccc1` (stereo not given), the Ki is > 44.3 µM (inactive).
Regarding `COc1ccc(C2/C(=C(\O)c3ccccc3)C(=O)C(=O)N2c2cccc(Cl)c2)c(OC)c1` (stereo not given), the Ki result is “inactive” and the IC50 worked out at 47.5 µM.
Consider `O=C1NC(c2ccc(Br)cc2)/C(=C(\O)c2ccc(Cl)cc2)C1=O` (stereo not given), for which the Ki was > 44.3 µM (inactive).
For `CCCCCCN1C(=O)C(=O)/C(=C(\O)c2ccccc2)C1c1ccc(O)c(OC)c1` (stereo not given), the Ki was 4.7 µM and the IC50 was 7.2 µM.
